According to US20150291625A1 (PFIZER INC., priority 2012, published 2015):
Values joined by “and” are separate entries in the source; they are usually repeats but may differ in a detail not shown here. Equal values may be shown once. Where a name gives a salt, the structure may show the parent alone. Read-outs that look alike come from different tables or passages of the source. Each block holds one compound with its values, some of them ahead of it.

Experiments:
[1] = biological target: T1, D1 (Homo sapiens, UniProt P21728); assay: Human D1 receptor binding assay ([3H]-SCH23390 competition)
Description: D1 binding assays were performed using over-expressing LTK human cell lines. […] These ligand and tissue concentrations were used in time course studies to determine linearity and equilibrium conditions for binding. Binding was at equilibrium with the specified amount of tissue in 30 minutes at 37° C. […] The pellet was resuspended in assay buffer (50 mM Tris (pH 7.4@ RT) containing 4 mM MgSO4 and 0.5 mM EDTA). […] After a 30 minute incubation period at 37° C., assay samples were rapidly filtered through Unifilter-96 GF/B PEI-coated filter plates and rinsed with 50 mM Tris buffer (pH 7.4 at 4° C.). […] Ki values were calculated according to the Cheng-Prusoff equation.

[2] = biological target: T1, D1; assay: D1 cAMP HTRF assay (HEK293T/hD1#1 stable cell line); type: cell-based; set-up: expressed in transfected cells
Procedure, shortened: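 Agonist-mode HTRF cAMP assay in HEK293T/hD1#1 stable cells resuspended in PBS with 0.5 μM IBMX; compound exposure 30 min at room temperature, then cAMP-D2 and anti-cAMP-cryptate detection for 1 h. EC50 from raw ratio data or from cAMP levels interpolated on a standard curve; percent effect versus controls.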

[3] = Human D1 Receptor Binding, Ki (nM), Geometric mean of 2-4 determinations, a: >=5 determinations, d: single determination

T1 sequence (P21728 whole entry): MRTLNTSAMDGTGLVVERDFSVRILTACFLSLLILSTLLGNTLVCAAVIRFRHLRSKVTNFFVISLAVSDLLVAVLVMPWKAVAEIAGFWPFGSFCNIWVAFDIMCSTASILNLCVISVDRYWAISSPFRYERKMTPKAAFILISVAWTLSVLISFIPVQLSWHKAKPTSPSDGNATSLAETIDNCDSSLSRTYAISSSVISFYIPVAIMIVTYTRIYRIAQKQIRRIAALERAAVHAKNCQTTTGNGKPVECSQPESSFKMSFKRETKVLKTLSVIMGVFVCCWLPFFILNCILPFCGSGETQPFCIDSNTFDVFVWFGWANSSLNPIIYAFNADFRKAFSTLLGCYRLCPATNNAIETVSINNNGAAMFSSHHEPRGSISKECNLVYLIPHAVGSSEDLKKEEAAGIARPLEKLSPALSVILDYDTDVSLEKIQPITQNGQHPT

SMILES: Cc1ncnc(C)c1-c1ccc(Oc2nccc3occc23)c(F)c1 [Example 130, 4-[4-(4,6-dimethylpyrimidin-5-yl)-2-fluorophenoxy]furo[3,2-c]pyridine]
Ki [1, 3]: 73 nM
EC50 [2]: 1050 nM

SMILES: Cc1cc(Oc2nccc3occc23)ccc1-c1nc(O)cnc1C [Example 136, 6-[4-(furo[3,2-c]pyridin-4-yloxy)-2-methylphenyl]-5-methylpyrazin-2-ol]
Ki [1, 3]: 225 nM
EC50 [2]: 2410 nM

SMILES: Cc1ncnc(C)c1-c1cc(F)c(Oc2nccc3occc23)cc1F [Example 139, 4-[4-(4,6-dimethylpyrimidin-5-yl)-2,5-difluorophenoxy]furo[3,2-c]pyridine]
Ki [1, 3]: 119 nM
EC50 [2]: 287 nM

SMILES: Cc1ncnc(C)c1-c1ccc(Oc2nccc3occc23)c2cn(C)nc12 [Example 144, 4-{[7-(4,6-dimethylpyrimidin-5-yl)-2-methyl-2H-indazol-4-yl]oxy}furo[3,2-c]pyridine]
Ki [1, 3]: 246 nM
EC50 [2]: 3490 nM

SMILES: Cc1cc(Oc2nccc3occc23)ccc1-c1ccnnc1C [Example 145, 4-[3-methyl-4-(3-methylpyridazin-4-yl)phenoxy]furo[3,2-c]pyridine]
Ki [1, 3]: 110 nM
EC50 [2]: 1440 nM

SMILES: Cc1ncnc(C)c1-c1ccc(Oc2nccc3occc23)c2cnn(C)c12 [Example 148, 4-{[7-(4,6-dimethylpyrimidin-5-yl)-1-methyl-1H-indazol-4-yl]oxy}furo[3,2-c]pyridine, trifluoroacetate salt]
Ki [1, 3]: 111 nM
EC50 [2]: 777 nM

SMILES: COc1nc(C)c(-c2ccc(Oc3nccc4occc34)cc2C)c(C)n1 [Example 149, 4-[4-(2-methoxy-4,6-dimethylpyrimidin-5-yl)-3-methylphenoxy]furo[3,2-c]pyridine]
Ki [1, 3]: 31.4 nM
EC50 [2]: 464 nM

SMILES: Cc1cnnc(C)c1-c1ccc(Oc2nccc3occc23)cc1 [Example 150, 4-[4-(3,5-dimethylpyridazin-4-yl)phenoxy]furo[3,2-c]pyridine]
Ki [1, 3]: 67 nM
EC50 [2]: 443 nM

SMILES: Cc1cc(Oc2nccc3occc23)ccc1-c1c(C)cnnc1N(C)C [Example 151, 4-[4-(furo[3,2-c]pyridin-4-yloxy)-2-methylphenyl]-N,N,5-trimethylpyridazin-3-amine, trifluoroacetate salt]
Ki [1, 3]: 101 nM
EC50 [2]: 1120 nM

SMILES: Cc1cc(Oc2nccc3occc23)ccc1-c1c(C)nc(O)nc1C [Example 152, 5-[4-(furo[3,2-c]pyridin-4-yloxy)-2-methylphenyl]-4,6-dimethylpyrimidin-2-ol]
Ki [1, 3]: 79.5 nM
EC50 [2]: 565 nM

SMILES: Cc1ccc2nccn2c1-c1ccc(Oc2nccc3occc23)cc1O [Example 153, 5-(furo[3,2-c]pyridin-4-yloxy)-2-(6-methylimidazo[1,2-a]pyridin-5-yl)phenol]
Ki [1, 3]: 5.99 nM
EC50 [2]: 51.8 nM

SMILES: Cc1cc(Oc2nccc3occc23)ccc1-c1cnncc1C [Example 154, 4-[3-methyl-4-(5-methylpyridazin-4-yl)phenoxy]furo[3,2-c]pyridine]
Ki [1, 3]: 402 nM
EC50 [2]: 2160 nM

SMILES: Cc1ncnc(C)c1-c1ccc(Oc2nccc3occc23)c2cccnc12 [Example 158, 8-(4,6-dimethylpyrimidin-5-yl)-5-(furo[3,2-c]pyridin-4-yloxy)quinoline]
Ki [1, 3]: 280 nM
EC50 [2]: 2690 nM

SMILES: Cc1n[nH]c(=O)c(C)c1-c1ccc(Oc2nccc3occc23)cc1Cl [Example 160, 5-[2-chloro-4-(furo[3,2-c]pyridin-4-yloxy)phenyl]-4,6-dimethylpyridazin-3(2H)-one]
Ki [1, 3]: 5.24 nM
EC50 [2]: 13 nM

SMILES: Cc1ccc2nccn2c1-c1ccc(Oc2nccc3occc23)cc1 [Example 161, 4-[4-(6-methylimidazo[1,2-a]pyridin-5-yl)phenoxy]furo[3,2-c]pyridine]
Ki ([1]; read-out: Human D1 Receptor Binding, Ki (nM), Geometric mean of 2-4 determinations, a: >=5 determinations, d: single determination): 8.49 nM
EC50 [2]: 94.7 nM and 173 nM

SMILES: Cc1cc(Oc2nccc3occc23)cc(C)c1-c1c(C)ncc2nccn12 [Example 162]
Ki [1, 3]: 10.6 nM
EC50 [2]: 251 nM and 446 nM

SMILES: Cc1cc(Oc2nccc3occc23)ccc1-c1c(C)ncnc1N1CC[C@H](F)C1 [Example 163, 4-(4-{4-[(3S)-3-fluoropyrrolidin-1-yl]-6-methylpyrimidin-5-yl}-3-methylphenoxy)furo[3,2-c]pyridine, formate salt]
Ki [1, 3]: 12.8 nM
EC50 [2]: 389 nM

SMILES: Cc1cc(Oc2nccc3occc23)ccc1-c1c(C)ncnc1N1Cc2cnn(C)c2C1 [Example 164, 4-{3-methyl-4-[4-methyl-6-(1-methyl-4,6-dihydropyrrolo[3,4-c]pyrazol-5(1H)-yl)pyrimidin-5-yl]phenoxy}furo[3,2-c]pyridine, formate salt]
Ki [1, 3]: 15.2 nM
EC50 [2]: 625 nM

More lines, in order of falling Ki [1, 3], values ahead:

Ki [1, 3]: 1820 nM
EC50 [2]: > 15100 nM
SMILES: Cc1ncnc(C)c1-c1ccc(Oc2nccc3occc23)c2c1OCO2 [Example 156, 4-{[7-(4,6-dimethylpyrimidin-5-yl)-1,3-benzodioxol-4-yl]oxy}furo[3,2-c]pyridine]

Ki [1, 3]: 354 nM
EC50 [2]: 3520 nM
SMILES: CCOc1nncc(C)c1-c1ccc(Oc2nccc3occc23)cc1C [Example 157, 4-[4-(3-ethoxy-5-methylpyridazin-4-yl)-3-methylphenoxy]furo[3,2-c]pyridine]

Ki [1, 3]: 138 nM
EC50 [2]: 1010 nM
SMILES: Cc1cc(Sc2nccc3occc23)ccc1-c1c(C)ncnc1C [Example 155, 4-{[4-(4,6-dimethylpyrimidin-5-yl)-3-methylphenyl]sulfanyl}furo[3,2-c]pyridine]

Ki [1, 3]: 135 nM
EC50 [2]: 1550 nM
SMILES: Cc1ncnc(C)c1-c1ccc(Oc2nccc3occc23)c(F)c1C [Example 131, 4-[4-(4,6-dimethylpyrimidin-5-yl)-2-fluoro-3-methylphenoxy]furo[3,2-c]pyridine]

Ki [1, 3]: 69.9 nM
EC50 [2]: 298 nM
SMILES: Cc1ncnc(C)c1-c1ccc(Oc2nccc3occc23)c(F)c1F [Example 141, 4-[4-(4,6-dimethylpyrimidin-5-yl)-2,3-difluorophenoxy]furo[3,2-c]pyridine]

Ki [1, 3]: 48 nM
EC50 [2]: 292 nM
SMILES: Cc1cnnc(C)c1-c1ccc(Oc2nccc3occc23)cc1F [Example 140, 4-[4-(3,5-dimethylpyridazin-4-yl)-3-fluorophenoxy]furo[3,2-c]pyridine]

Ki [1, 3]: 42 nM
EC50 [2]: 209 nM
SMILES: Cc1cc(Oc2nccc3occc23)ccc1-c1ccc(O)c2nccn12 [Example 137, 5-[4-(furo[3,2-c]pyridin-4-yloxy)-2-methylphenyl]imidazo[1,2-a]pyridin-8-ol]

Ki [1, 3]: 39.9 nM
EC50 [2]: 2260 nM
SMILES: Cc1cc(Nc2nccc3occc23)ccc1-c1c(C)ncnc1C [Example 132, N-[4-(4,6-dimethylpyrimidin-5-yl)-3-methylphenyl]furo[3,2-c]pyridin-4-amine, formate salt]

Ki [1, 3]: 31.5 nM
EC50 [2]: 172 nM
SMILES: Cc1cc(Oc2nccc3occc23)ccc1-c1c(C)c(O)nc2nccn12 [Example 133, 5-[4-(furo[3,2-c]pyridin-4-yloxy)-2-methylphenyl]-6-methylimidazo[1,2-a]pyrimidin-7-ol]

Ki [1, 3]: 15.6 nM
EC50 [2]: 182 nM
SMILES: Cc1cc(Oc2nccc3occc23)ccc1-c1c(C)ncnc1N(C)C [Example 165, 5-[4-(furo[3,2-c]pyridin-4-yloxy)-2-methylphenyl]-N,N,6-trimethylpyrimidin-4-amine, trifluoroacetate salt]

Ki [1, 3]: 11.6 nM
EC50 [2]: 212 nM
SMILES: Cc1cc(Oc2nccc3occc23)ccc1-c1c(C)nn(C)c(=O)c1C [Example 159, 5-[4-(furo[3,2-c]pyridin-4-yloxy)-2-methylphenyl]-2,4,6-trimethylpyridazin-3(2H)-one]
